Data reported in patent publication US20230322785A1, “ADENOSINE A2A AND A2B RECEPTOR DUAL ANTAGONISTS FOR IMMUNO-ONCOLOGY” (Merck Sharp & Dohme LLC, priority 2020, published 2023).

Molecular target: T1, human A2A adenosine receptor (Homo sapiens, UniProt P29274)
T1 construct: expressed in transfected cells; host or cells: HEK293 or CHO cells
Experiment: A2A binding affinity, Method (B): scintillation proximity assay (SPA) with [3H]SCH58261
Settings: membranes of HEK293 or CHO cells expressing the human receptor
Source text: Method (A) describes the procedure used to measure A2A binding affinity using radioligand binding. Method (B) describes the procedure used to measure A2A binding affinity using SPA technology. The method used to measure A2B binding affinity is also described below. The method used to determine the A2A IC50 value reported for each compound in the table is indicated next to the reported value. The A2B IC50 value measured using the A2B binding affinity assay is shown in the table next to the compound under the corresponding A2A value.
The A2A receptor affinity binding assay measured the amount of binding of a tritiated ligand with high affinity for the A2A adenosine receptor to membranes made from HEK293 or CHO cells recombinantly expressing the human A2A adenosine receptor, in the presence of varying concentrations of a compound of the invention. The data were generated using either filtration binding or a homogenous scintillation proximity assay (SPA).
Method (B): Measurement of A2A Binding Affinity Using SPA
Binding affinity using SPA was conducted as follows. Test compounds (50 nL) were dispensed into individual wells of a 384-well OptiPlate™ well (Perkin Elmer) by Echo® acoustic liquid transfer (Labcyte). 20 µL of 1.25 nM [^3H] SCH58261 ((7-(2-phenylethyl)-5-amino-2-(2-furyl)-pyrazolo-[4,3-e]-1,2,4-triazolo[1,5-c]pyrimidine)) in DPBS assay buffer (Dulbecco’s phosphate buffered saline without calcium and magnesium, ThermoFisher Scientific, Cat. No. A1285601) supplemented with 10 mM MgCl2 was added. A2A receptor-expressing membranes were incubated with 20 µg/mL adenosine deaminase (Roche, Cat. No. 10 102 105 001) for 15 min at room temperature. The receptor-expressing membranes were then combined with wheat germ agglutinin-coated yttrium silicate SPA beads (GE Healthcare, Cat. No. RPNQ0023) in a ratio of […] (w/w) and incubated for 30 min at room temperature. 30 µL of the membrane/bead mixture (0.25 µg and 25 µg per well respectively) were added to the 384-well OptiPlate™ well. To define total and non-specific binding, wells containing 1% DMSO or 1 µM CGS 15943 (Tocris Bioscience, Cat. No. 1699) respectively were also included in the experiment. The plate was incubated for 1 h at room temperature with agitation. The assay plate was then incubated for an h to allow the beads to settle before data were collected using a TopCount® (Perkin Elmer) scintillation counter. After normalization to total and non-specific binding, the percent effect at each compound concentration was calculated. The plot of percent effect versus the log of compound concentration was analyzed electronically using a 4-parameter logistic fit based on the Levenberg-Marquardt algorithm to generate IC50 values.

T1 sequence (P29274 whole entry): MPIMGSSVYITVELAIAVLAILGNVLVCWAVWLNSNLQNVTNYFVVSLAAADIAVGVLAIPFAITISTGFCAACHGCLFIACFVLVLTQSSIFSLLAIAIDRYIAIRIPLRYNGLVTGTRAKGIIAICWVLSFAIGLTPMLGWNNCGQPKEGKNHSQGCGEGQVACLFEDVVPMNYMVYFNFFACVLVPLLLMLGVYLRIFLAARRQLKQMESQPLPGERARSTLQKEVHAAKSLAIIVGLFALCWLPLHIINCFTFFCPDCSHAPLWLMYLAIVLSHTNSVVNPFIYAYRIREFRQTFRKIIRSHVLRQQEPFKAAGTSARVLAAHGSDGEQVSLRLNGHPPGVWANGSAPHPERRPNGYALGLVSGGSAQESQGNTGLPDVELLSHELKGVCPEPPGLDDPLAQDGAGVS

Row | IC50 [nM] | Structure (SMILES)
1 | 45.2 | COc1cccc2c1nc(N)n1nc(CCCNCc3ccc(S(F)(F)(F)(F)F)cc3)nc21 [Example 10.7, 7-methoxy-2-(3-((4-(pentafluoro-λ^6-sulfaneyl)benzyl)amino)propyl)-[1,2,4]triazolo[1,5-c]quinazolin-5-amine]
2 | 14.6 | COc1cccc2c1nc(N)n1nc(CN(Cc3cccc(Br)n3)CC3CC3)nc21 [Example 16.3, 2-((((6-bromopyridin-2-yl)methyl)(cyclopropylmethyl)amino)methyl)-7-methoxy-[1,2,4]triazolo[1,5-c]quinazolin-5-amine]
3 | 2 | COc1cccc2c1nc(N)n1nc(CC(=O)N[C@@H]3CCOc4cc(F)ccc43)nc21 [Example 4.6, (R)-2-(5-amino-7-methoxy-[1,2,4]triazolo[1,5-c]quinazolin-2-yl)-N-(7-fluorochroman-4-yl)acetamide]
4 | 16.5 | COCCN(CCc1ccc(C(F)(F)F)cc1)Cc1nc2c3cccc(OC)c3nc(N)n2n1 [Example 15.14, 7-methoxy-2-(((2-methoxyethyl)(4-(trifluoromethyl)phenethyl)amino)methyl)-[1,2,4]triazolo[1,5-c]quinazolin-5-amine]
5 | 24.1 | COc1cccc2c1nc(N)n1nc(CN(Cc3ccc(C(F)(F)F)nc3)CC3CC3)nc21 [Example 16.8, 2-(((cyclopropylmethyl)((6-(trifluoromethyl)pyridin-3-yl)methyl)amino)methyl)-7-methoxy-[1,2,4]triazolo[1,5-c]quinazolin-5-amine]
6 | 46 | CCNCc1nc2c3cccc(OC)c3nc(N)n2n1 [Example 10.4, 2-((ethylamino)methyl)-7-methoxy-[1,2,4]triazolo[1,5-c]quinazolin-5-amine]
7 | 41.6 | COc1cccc2c1nc(N)n1nc(CN(C)c3cccnc3Br)nc21 [Example 10.3, 2-(((2-bromopyridin-3-yl)(methyl)amino)methyl)-7-methoxy-[1,2,4]triazolo[1,5-c]quinazolin-5-amine]
8 | 50.7 | COc1cccc2c1nc(N)n1nc(CN(Cc3ccc(C(F)(F)F)cc3)C(=O)NC(C)C)nc21 [Example 20.2, 1-((5-amino-7-methoxy-[1,2,4]triazolo[1,5-c]quinazolin-2-yl)methyl)-3-isopropyl-1-(4-(trifluoromethyl)benzyl)urea]
9 | 2.3 | COc1cccc2c1nc(N)n1nc(CN(Cc3ccnc4[nH]ccc34)CC3CC3)nc21 [Example 16.10, 2-((((1H-pyrrolo[2,3-b]pyridin-4-yl)methyl)(cyclopropylmethyl)amino)methyl)-7-methoxy-[1,2,4]triazolo[1,5-c]quinazolin-5-amine]
10 | 12 | COc1cccc2c1nc(N)n1nc(CN[C@H](C)C3CC3)nc21 [Example 7.8, (R)-2-(((1-cyclopropylethyl)amino)methyl)-7-methoxy-[1,2,4]triazolo[1,5-c]quinazolin-5-amine]
11 | 123 | COc1cccc2c1nc(N)n1nc(CN(Cc3ccc(OC(F)(F)F)cc3)CC3CCCCC3)nc21 [Example 15.11, 2-(((cyclohexylmethyl)(4-(trifluoromethoxy)benzyl)amino)methyl)-7-methoxy-[1,2,4]triazolo[1,5-c]quinazolin-5-amine]
12 | 7.5 | COc1cccc2c1nc(N)n1nc(CN(Cc3ccc(C(F)(F)F)cc3)S(C)(=O)=O)nc21 [Example 19.2, N-((5-amino-7-methoxy-[1,2,4]triazolo[1,5-c]quinazolin-2-yl)methyl)-N-(4-(trifluoromethyl)benzyl)methanesulfonamide]
13 | 3.2 | COc1cccc2c1nc(N)n1nc(CN(Cc3ccc(Br)cc3)CC3CC3)nc21 [Example 15.17, 2-(((4-bromobenzyl)(cyclopropylmethyl)amino)methyl)-7-methoxy-[1,2,4]triazolo[1,5-c]quinazolin-5-amine]
14 | 7.5 | COc1ccc(CCC(=O)NCc2nc3c4cccc(OC)c4nc(N)n3n2)cc1 [Example 2.4]
15 | 5.3 | COc1cccc2c1nc(N)n1nc(CN(Cc3cccnc3)CC3CC3)nc21 [Example 16.2, 2-(((cyclopropylmethyl)(pyridin-3-ylmethyl)amino)methyl)-7-methoxy-[1,2,4]triazolo[1,5-c]quinazolin-5-amine]
16 | 17.3 | COc1cccc2c1nc(N)n1nc(CNCCc3ccc(C(F)(F)F)cc3)nc21 [Example 8.8]
17 | 12.2 | COc1cccc2c1nc(N)n1nc(CCNCC(C)(F)F)nc21 [Example 23.3, 2-(2-((2,2-difluoropropyl)amino)ethyl)-7-methoxy-[1,2,4]triazolo[1,5-c]quinazolin-5-amine]
18 | 7.2 | COc1cccc2c1nc(N)n1nc(CN[C@@H](C)c3ccc(C(F)(F)F)cc3)nc21 [Example 7.2, (S)-7-methoxy-2-(((1-(4-(trifluoromethyl)phenyl)ethyl)amino)methyl)-[1,2,4]triazolo[1,5-c]quinazolin-5-amine]
19 | 101 | COc1cccc2c1nc(N)n1nc(CN(CCC(C)C)Cc3ccc(C(F)(F)F)cc3)nc21 [Example 15.5, 2-((isopentyl(4-(trifluoromethyl)benzyl)amino)methyl)-7-methoxy-[1,2,4]triazolo[1,5-c]quinazolin-5-amine]
20 | 44.3 | COc1cccc2c1nc(N)n1nc(CNC(C)c3ncc(-c4ccc(F)cc4)o3)nc21 (single isomer, unassigned) [Example 10.15, (S or R)-2-(((1-(5-(4-fluorophenyl)oxazol-2-yl)ethyl)amino)methyl)-7-methoxy-[1,2,4]triazolo[1,5-c]quinazolin-5-amine]
21 | 32.2 | COc1cccc2c1nc(N)n1nc(CN(CC(C)O)CC(C)O)nc21 (stereo not drawn) [Example 10.13, 1,1-(((5-amino-7-methoxy-[1,2,4]triazolo[1,5-c]quinazolin-2-yl)methyl)azanediyl)bis(propan-2-ol)]
22 | 6.4 | COc1cccc2c1nc(N)n1nc(CNCc3ccc(S(F)(F)(F)(F)F)cc3)nc21 [Example 8.7, 7-methoxy-2-(((4-(pentafluoro-λ^6-sulfanyl)benzyl)amino)methyl)-[1,2,4]triazolo[1,5-c]quinazolin-5-amine]
23 | 3.2 | CCN(Cc1ccc(OC(F)(F)F)cc1)Cc1nc2c3cccc(OC)c3nc(N)n2n1 [Example 15.8, 2-((ethyl(4-(trifluoromethoxy)benzyl)amino)methyl)-7-methoxy-[1,2,4]triazolo[1,5-c]quinazolin-5-amine]
24 | 15.9 | COc1cccc2c1nc(N)n1nc(CCN[C@H](C)c3ccc(C(F)(F)F)cc3)nc21 [Example 22.4, (R)-7-methoxy-2-(2-((1-(4-(trifluoromethyl)phenyl)ethyl)amino)ethyl)-[1,2,4]triazolo[1,5-c]quinazolin-5-amine]
25 | 2.3 | CCCN(Cc1ccc(C(F)(F)F)cc1)Cc1nc2c3cccc(OC)c3nc(N)n2n1 [Example 15.3, 7-methoxy-2-((propyl(4-(trifluoromethyl)benzyl)amino)methyl)-[1,2,4]triazolo[1,5-c]quinazolin-5-amine]
26 | 31.4 | CCN(Cc1ccccn1)Cc1nc2c3cccc(OC)c3nc(N)n2n1 [Example 7.4, 2-((ethyl(pyridin-2-ylmethyl)amino)methyl)-7-methoxy-[1,2,4]triazolo[1,5-c]quinazolin-5-amine]
27 | 5.8 | COc1cccc2c1nc(N)n1nc(CC(=O)NCc3ccc(OC(F)(F)F)cc3)nc21 [Example 4.5, 2-(5-amino-7-methoxy-[1,2,4]triazolo[1,5-c]quinazolin-2-yl)-N-(4-(trifluoromethoxy)benzyl)acetamide]
